Source: patent US12351565B2, “Aromatic compound and preparation method therefor and use thereof” (SHANGHAI JIANHE PHARMACEUTICAL & TECHNOLOGY CO. LTD., priority 2018, dated 2025)
Read-outs that look alike come from different tables or passages of the source.

Assays:
[1] = cited from earlier work
[2] = system: C57 mice; assay: Forced swimming experiment, oral administration to mice; type: in vivo; details: C57 mice
Method: 1 h and 24 h after a single oral administration of 20 mg/kg, forced swimming experiments were then carried out to investigate the effects of different compounds on depression-like behavior in C57 mice.
(§1) Experimental animals were 6-week aged C57 mice, male, C57 mice were purchased from Shanghai SLAC Laboratory Animal Co., Ltd., with a body weight of 20.45±0.19 g. Before the experiment, they arrived at the Animal Feeding Center of Shanghai Institute of Materia Medica, Chinese Academy of Sciences (Animal Production License: SCXK9[Shanghai]2004-0002, usage license: SYXK[Shanghai]2003-0029), and adapted for 3 days or more in animal facilities. They were bred at 6 animals/cage. The breeding environment was room temperature 23±0.2° C., with 12/12 hours alternation of day and night. Before the behavioral test, the animals should be moved to the behavioral test operation room 2 hours in advance to adapt to the environment and reduce their tension.
Preparation of the test product: each test compound was accurately weighed and dissolved in 0.9% NaCl solution, mixed thoroughly, and prepared into 1 mg/ml and 2 mg/ml solutions respectively, and set aside.
(§2) 24 hours before the administration, the mice were placed in a cylindrical tank to adapt to the aquatic environment for 10 min. On the day of the behavioral test, the animals were respectively administered intragastrically once at 1 h and 24 h before the behavioral test. The mice were placed individually into a cylindrical glass tank with a height of 30 cm and a diameter of 20 cm. The water depth in the tank was 15 cm, so that the animals could not escape from the glass tank and their feet and tails could not touch the bottom of the tank, the water temperature was 23° C.-25° C. A 6 minute video was taken after the mouse entered into water. Since most animals were very active in the first two minutes, the immobility time in the following 4 minute were calculated (criterion of immobility: the mouse stops struggling in the water, stays still and has small limbs movement to maintain balance or to keep a floating state).
(§3) The antidepressant effect of a compound was evaluated by the ability of the compound to reduce the immobility time of the animal in the forced swimming test as compared with the blank group. Inhibition rate1 h(%)=immobility time(blank, 1 h)−immobility time(administration, 1 h)/immobility time(blank, 1 h)×100% Inhibition rate24h(%)=immobility time(blank, 24 h)−immobility time(administration, 24 h)/immobility time(blank, 24 h)×100%

[3] = system: C57 mice; assay: Forced swimming experiment, intraperitoneal administration to mice; type: in vivo; details: for inhibition in vivo at 10 mg/kg: Mus musculus, ip; for 1 h inhibition rate: forced swimming 1 h after single intraperitoneal 10 mg/kg
Method: The forced-swimming test is currently the most widely used classic method to evaluate the antidepressant effects of compounds in rodents. […] The time in immobile state of experimental animal is observed and recorded, which can be used to evaluate the effect of antidepressant compounds.
1 h and 24 h after a single intraperitoneal administration of 10 mg/kg, forced swimming tests were respectively carried out to investigate the effects of different compounds on depression-like behaviors of C57 mice.
as §1, with “male, and” for “male,”
Preparation of the test product: each test compound was accurately weighed and dissolved in 0.9% NaCl solution, mixed thoroughly, and prepared as a 1 mg/ml solution, set aside.
as §2, with “intraperitoneally” for “intragastrically”
as §3, with “group. The shorter the immobility time of the animal to be tested, the higher the inhibition rate and the stronger the antidepressant activity.” for “group.”, “rate24 h(%)=immobility” for “rate24h(%)=immobility”

[4] = In vivo pharmacokinetic experiment in mice; details: C57 mice; for AUC0-t / AUC0-∞ / MRT / half-life / clearance / Vd / Cmax / Tmax: plasma; for F: 20 mg/kg p.o. vs 5 mg/kg i.v.; for MRT / half-life / clearance / Vd / Cmax / Tmax: male, mouse; for Vd: read-out: Vss
Method: Healthy male C57 mice were randomly divided into groups with 3 mice in each group, and the test compounds were administrated intragastrically or by intravenous injection. See Table 6 below for specific arrangements:
(§4) Each test compound was dissolved in physiological saline to prepare a certain concentration of solution for administration.
(§5) One day before administration, the mice were fasted and allowed to drink freely for 12-14 h. The mice were fed 4 h after administration.
0.030 mL of blood was took from each animal each time through the orbit, and anticoagulated with EDTAK2. The collection time points were as follows: in PO group, 5 min, 15 min, 30 min, 1 h, 2 h, 4 h, 6 h, 8 h, 24 h after administration of test substance; in IV group, 2 min, 5 min, 15 min, 30 min, 1 h, 2 h, 4 h, 6 h, 8 h, 24 h after administration of test substance. After blood samples were collected, they were placed on ice and centrifuged to separate the plasma within 30 minutes (centrifugation conditions: 5000 rpm, 10 minutes, 4° C.). The sample were stored at −80° C. before analysis.

[5] = rats, literature (Journal of Psychopharmacology, 2019, 33, 12-24), cited from earlier work
[6] = in mice, background statement; cited from earlier work
[7] = molecular target: T1, hERG potassium channel (Homo sapiens, UniProt Q12809); assay: hERG potassium channel inhibition experiment (automatic patch clamp, CHO-hERG cells); type: cell-based; details: Qpatch, highest tested concentration 40 μM, read-out: IC50, blocking effect on the hERG potassium current
T1 construct: expressed in transfected cells
Method: Fully automatic patch clamps were used to test the blocking effect of the compounds of the present invention on the hERG potassium current on a stable cell line transfected with hERG potassium channels.
CHO-hERG cells were cultured in 175 cm^2 culture flask. When the cell grew to 60-80% confluence, the culture medium was removed. The cells were washed with 7 ml PBS (Phosphate Buffered Saline) once, and then 3 ml Detachin was added to digest.
After the digestion was completed, 7 ml culture medium was added to neutralize. The mixture was centrifuged, and after the supernatant was removed, 5 ml culture medium was added to resuspend to ensure the cell density was 2×10^6-5×10^6/ml.
Single-cell high-impedance sealing and whole-cell mode formation were all automatically completed by using the Qpatch instrument. After the recording mode was obtained, the cell was clamped at −80 millivolts. Before +40 millivolt depolarization stimulation for 5 seconds was given, −50 millivolt pre-voltage for 50 millisecond was first given, then repolarized to −50 millivolt for 5 seconds, and then returned to −80 millivolt. This voltage stimulus was applied every 15 seconds. After recording for 2 min, extracellular fluid was given, and recording was conducted for 5 min, and then the dosing process started. The compound concentration started from the lowest test concentration, and each test concentration was given for 2.5 min. […] At least 3 cells per concentration (n≥3) were tested.
20 mM compound mother liquor was diluted with extracellular fluid. 5 μL of 20 mM compound mother liquor was taken and added into 2495 μL extracellular fluid, so that it was diluted 500 times to 40 μM, and was then serially diluted 3 times in an extracellular fluid containing 0.2% DMSO to obtain the final concentration to be tested.
The highest tested concentration was 40 μM, and the concentrations were in order as follows: 40, 13.33, 4.44, 1.48, 0.49, 0.16 μM, totally 6 concentrations.
Experimental data were analyzed by XLFit software.

[8] = Distribution in mouse brain tissue; type: in vivo, C57 mice; details: male, brain, po; C57 mouse, 10 mg/kg p.o., 30 min
Method: Healthy male C57 mice were randomly divided into groups with 3 mice in each group, and the test compound was administrated intragastrically. See Table 10 below for specific arrangements:
as §4, §5
After the animals were bled, the brain tissue was collected. After washing, 50% ice methanol was added for homogenate at 1:4 (m/v). The collection time points was 10 min, 15 min, 30 min, 1 h, 2 h after administration of the test substance; 30.0 μL of tissue sample was taken (the sample was taken out from the refrigerator at −80° C., vortexed for 30 seconds after natural melting at room temperature) and added into a 1.5 mL centrifuge tube. 300.0 μL internal standard solution (30 ng/mL […] acetonitrile solution) was added, the mixture was vortex for 60 seconds and then centrifuged for 3 minutes (centrifugal force was 12000 rpm); 75 μL of the supernatant was taken and transferred to 96-well injection plate loaded with equal volume of water, shaken and mixed well, and subjected to LC-MS/MS analysis, wherein injection volume was 10 μL.

[9] = brain tissue, 50 mg/kg p.o., literature (Journal of Psychopharmacology, 2019, 33, 12-24)
[10] = inhibition of immobility time, forced swimming 1 h after single oral (intragastric) 20 mg/kg
[11] = inhibition of immobility time, forced swimming 24 h after single oral (intragastric) 20 mg/kg
[12] = 1 h, read-out: 1 h inhibition rate
[13] = 24 h, read-out: 24 h inhibition rate
[14] = inhibition of immobility time, C57 mice

T1 sequence (Q12809 whole entry): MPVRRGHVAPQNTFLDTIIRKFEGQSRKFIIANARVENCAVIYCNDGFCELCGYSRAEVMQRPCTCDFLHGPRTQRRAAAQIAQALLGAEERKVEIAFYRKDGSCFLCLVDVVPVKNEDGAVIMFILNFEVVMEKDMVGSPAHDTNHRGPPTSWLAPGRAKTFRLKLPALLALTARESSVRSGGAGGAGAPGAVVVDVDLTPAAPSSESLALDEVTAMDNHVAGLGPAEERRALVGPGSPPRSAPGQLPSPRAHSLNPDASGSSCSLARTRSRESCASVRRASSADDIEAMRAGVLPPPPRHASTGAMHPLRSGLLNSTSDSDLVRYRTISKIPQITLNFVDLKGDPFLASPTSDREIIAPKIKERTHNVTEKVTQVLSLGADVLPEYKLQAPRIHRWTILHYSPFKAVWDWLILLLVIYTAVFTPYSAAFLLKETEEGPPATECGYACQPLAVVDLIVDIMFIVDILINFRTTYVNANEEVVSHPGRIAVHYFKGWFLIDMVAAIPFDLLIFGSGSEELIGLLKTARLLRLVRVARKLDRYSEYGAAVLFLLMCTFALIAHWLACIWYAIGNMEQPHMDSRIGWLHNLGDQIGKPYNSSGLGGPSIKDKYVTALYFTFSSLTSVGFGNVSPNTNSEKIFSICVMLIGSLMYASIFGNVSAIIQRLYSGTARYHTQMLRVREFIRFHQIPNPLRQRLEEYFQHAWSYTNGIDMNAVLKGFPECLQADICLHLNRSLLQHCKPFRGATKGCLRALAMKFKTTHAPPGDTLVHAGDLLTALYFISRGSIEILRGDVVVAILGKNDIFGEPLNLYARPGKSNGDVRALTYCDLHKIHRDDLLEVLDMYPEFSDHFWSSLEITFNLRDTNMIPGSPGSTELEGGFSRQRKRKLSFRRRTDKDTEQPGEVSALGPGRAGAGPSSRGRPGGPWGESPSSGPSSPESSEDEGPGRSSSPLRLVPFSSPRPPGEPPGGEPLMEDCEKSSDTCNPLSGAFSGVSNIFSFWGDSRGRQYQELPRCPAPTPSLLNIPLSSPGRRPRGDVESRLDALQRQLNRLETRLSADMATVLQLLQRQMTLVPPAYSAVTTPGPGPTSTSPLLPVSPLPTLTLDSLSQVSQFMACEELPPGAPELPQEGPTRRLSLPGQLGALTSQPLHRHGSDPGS

Cl.N[C@@]1(c2ccccc2Cl)CCC[C@@H](O)C1=O [(2R,6R)-HNK, (2R, 6R)-HNK, reference compound]
Brain tissue concentration ([1]; 10 mg/kg intraperitoneally, literature (Nature, 2016, 533, 481-486; Nature, 2017, 546, E1-E5)): 2562 ng/g | Brain tissue concentration ([1]; 50 mg/kg p.o., 10 min, literature (Journal of Psychopharmacology, 2019, 33, 12-24)): 6490 to 8600 ng/g | AUC0-∞ [1, 9]: 2850 to 5190 ng·h/g | T1/2 [1, 9]: 42 min | 1 h inhibition rate [2, 10]: 18.4 ± 1.6% | 24 h inhibition rate [2, 11]: 19.6 ± 4.4% | inhibition in vivo at 10 mg/kg [3, 12]: 31.1% | inhibition in vivo at 10 mg/kg [3, 13]: 27.4% | 1 h inhibition rate [3, 14]: 31.1 ± 4.0% | 24 h inhibition rate ([3]; inhibition of immobility time, forced swimming 24 h after single intraperitoneal 10 mg/kg, C57 mice): 27.4 ± 3.9% | AUC0-t ([4]; 5 mg/kg i.v.): 2085 ngh/mL | AUC0-∞ ([4]; 5 mg/kg i.v.): 2096 ngh/mL | F [4]: 66.8% | AUC0-t ([4]; 20 mg/kg p.o.): 5589 ngh/mL | AUC0-∞ ([4]; 20 mg/kg p.o.): 5599 ngh/mL | MRT ([4]; iv, 5 mg/kg i.v.): 23.4 min | half-life ([4]; iv, 5 mg/kg i.v.): 20.4 min | clearance ([4]; iv, 5 mg/kg i.v.): 40.7 mL/min/kg | Vd ([4]; iv, 5 mg/kg i.v.): 0.94 L/kg | Cmax ([4]; po, 20 mg/kg p.o.): 7180 ng/mL | MRT ([4]; po, 20 mg/kg p.o.): 52.5 min | Tmax ([4]; po, 20 mg/kg p.o.): 5 min | half-life ([4]; po, 20 mg/kg p.o.): 55.8 min | AUC0-∞ ([5]; 10 mg/kg i.v.): 6270 ngh/mL | CL ([5]; 10 mg/kg i.v.): 27 mL/min/kg | T1/2 ([5]; 10 mg/kg i.v.): 480 min | Vss ([5]; 10 mg/kg i.v.): 7.5 L/kg | AUC0-∞ ([5]; 10 mg/kg p.o.): 2650 ngh/mL | Cmax ([5]; 10 mg/kg p.o.): 1500 ng/mL | F ([5]; 10 mg/kg p.o.): 42% | T1/2 ([5]; 10 mg/kg p.o.): 414 min | Tmax ([5]; 10 mg/kg p.o.): 10 min | T1/2 [6]: < 60 min

Cl.NC1(c2ccc(C(F)(F)F)cc2)CCCC(O)C1=O (stereo not shown) [Compound 46, 2-amino-6-hydroxy-2-(4-(trifluoromethyl)phenyl)cyclohexane-1-one hydrochloride]
1 h inhibition rate [2, 10]: 31.2 ± 4.7% | 24 h inhibition rate [2, 11]: 32.3 ± 1.5% | inhibition in vivo at 10 mg/kg [3, 12]: 34.7 ± 4.1% | inhibition in vivo at 10 mg/kg [3, 13]: 43.5% | IC50 [7]: > 40 µM

Cl.N[C@@]1(c2cccc(OC(F)(F)F)c2F)CCC[C@@H](O)C1=O [Compound 64, (2R,6R)-2-amino-2-(2-fluoro-3-(trifluoromethoxy)phenyl)-6-hydroxycyclohexane-1-one hydrochloride]
1 h inhibition rate [2, 10]: 36.5 ± 5.3% | 24 h inhibition rate [2, 11]: 34.5 ± 1.0% | AUC0-t ([4]; 5 mg/kg i.v.): 4817 ngh/mL | AUC0-∞ ([4]; 5 mg/kg i.v.): 4838 ngh/mL | F [4]: 66.2% | AUC0-t ([4]; 20 mg/kg p.o.): 12708 ngh/mL | AUC0-∞ ([4]; 20 mg/kg p.o.): 12816 ngh/mL | MRT ([4]; iv, 5 mg/kg i.v.): 52.8 min | half-life ([4]; iv, 5 mg/kg i.v.): 52.2 min | clearance ([4]; iv, 5 mg/kg i.v.): 17.2 mL/min/kg | Vd ([4]; iv, 5 mg/kg i.v.): 0.91 L/kg | Cmax ([4]; po, 20 mg/kg p.o.): 11900 ng/mL | MRT ([4]; po, 20 mg/kg p.o.): 125 min | Tmax ([4]; po, 20 mg/kg p.o.): 5 min | half-life ([4]; po, 20 mg/kg p.o.): 239 min | IC50 [7]: > 40 µM | concentration at 30 min [8]: 5740 ng/g

CNC1(c2ccccc2Cl)CCCCC1=O (stereo not shown) [Ketamine, ketamine, reference compound]
Brain tissue concentration ([1]; 30 mg/kg intraperitoneally, literature (Journal of Pharmaceutical and Biomedical Analysis, 2018, 148, 288-297)): 1929 ng/g | 1 h inhibition rate ([2]; control given intraperitoneally 10 mg/kg, 1 h): 22.7 ± 0.2% | 24 h inhibition rate ([2]; control given intraperitoneally 10 mg/kg, 24 h): 25.1 ± 2.7% | inhibition in vivo at 10 mg/kg [3, 12]: 29.2% | inhibition in vivo at 10 mg/kg [3, 13]: 35.4 ± 7.9% | 1 h inhibition rate [3, 14]: 29.2 ± 4.6%
